According to PubChem BioAssay AID292 (DTP/NCI, 2004):
“And” between values parts separate entries of the source, which are not always exact repeats. Identical values can stand only once. Toxic doses and inconclusive results are not listed.

Tested on: B6C3F1 mice, ip Sarcoma M5076, median survival T/C
Assay: NCI In Vivo Anticancer Drug Screen. Data for tumor model Sarcoma M5076 (intraperitoneal) in B6C3F1 mice
Conditions: endpoint: median survival time, higher = longer survival
Method in brief: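 Antitumour effect is judged in tumour-bearing mice by comparing survival after compound dosing against vehicle-only animals, reported as T/C.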

SMILES: COC(=O)[C@@]12OC[C@]34[C@H]([C@@H](O)[C@@H]1O)[C@@]1(C)CC(=O)C(OC(=O)CC(=O)OC5=C(C)[C@@H]6C[C@H]7OC(=O)[C@H](OC(=O)/C=C(\C)C(C)C)[C@H]8[C@]9(C(=O)OC)OC[C@]78[C@H]([C@@H](O)[C@@H]9O)[C@@]6(C)CC5=O)=C(C)[C@@H]1C[C@H]3OC(=O)[C@H](OC(=O)/C=C(\C)C(C)C)[C@@H]24
- T/C (dose: 0.75 mg/kg/injection, schedule: Q04DX004 (ip), vehicle: saline + Tween-80 + alcohol): 108 % of control
- T/C (dose: 1.5 mg/kg/injection, schedule: Q04DX004 (ip), vehicle: saline + Tween-80 + alcohol): 118 % of control
- T/C (dose: 3.0 mg/kg/injection, schedule: Q04DX004 (ip), vehicle: saline + Tween-80 + alcohol): 118 % of control
- T/C (dose: 6.0 mg/kg/injection, schedule: Q04DX004 (ip), vehicle: saline + Tween-80 + alcohol): 112 % of control

SMILES: N#CCS(=O)(=O)c1cccc[n+]1[O-]
- T/C (dose: 50.0 mg/kg/injection, schedule: Q04DX004 (ip), vehicle: saline with Tween-80): 99 % of control
- T/C (dose: 100.0 mg/kg/injection, schedule: Q04DX004 (ip), vehicle: saline with Tween-80): 99 % of control
- T/C (dose: 200.0 mg/kg/injection, schedule: Q04DX004 (ip), vehicle: saline with Tween-80): 93 % of control

SMILES: O=C1N[C@H]2[C@H](O)[C@H](O)[C@@H](O)[C@H](O)[C@@H]2c2cc3c(c(O)c21)OCO3
- T/C (dose: 1.5 mg/kg/injection, schedule: Q04DX004 (ip), vehicle: saline + alcohol): 115 % of control and 121 % of control
- T/C (dose: 3.0 mg/kg/injection, schedule: Q01DX009 (ip), vehicle: saline + alcohol): 162 % of control and 163 % of control
- T/C (dose: 6.0 mg/kg/injection, schedule: Q01DX009 (ip), vehicle: saline + alcohol): 177 % of control
- T/C (dose: 6.25 mg/kg/injection, schedule: Q01DX009 (ip), vehicle: saline + alcohol): 152 % of control

SMILES: CN=C(N)c1ccc(N=C(N)c2ccc(C(N)=Nc3ccc(C(N)=NC)cc3)cc2)cc1
- T/C (dose: 3.75 mg/kg/injection, schedule: Q01DX005 (ip), vehicle: saline): 110 % of control
- T/C (dose: 7.5 mg/kg/injection, schedule: Q01DX005 (ip), vehicle: saline): 116 % of control
- T/C (dose: 7.5 mg/kg/injection, schedule: Q04DX004 (ip), vehicle: saline): 88 % of control
- T/C (dose: 15.0 mg/kg/injection, schedule: Q01DX005 (ip), vehicle: saline): 124 % of control
- T/C (dose: 15.0 mg/kg/injection, schedule: Q04DX004 (ip), vehicle: saline): 98 % of control
- T/C (dose: 18.0 mg/kg/injection, schedule: Q01DX005 (ip), vehicle: saline): 156 % of control
- T/C (dose: 30.0 mg/kg/injection, schedule: Q04DX004 (ip), vehicle: saline): 109 % of control

SMILES: Cc1nc(N)nc(N)c1N1CCN(c2ccc(C(=O)NC(C(=O)O)C(=O)O)cc2)CC1
- T/C (dose: 3.75 mg/kg/injection, schedule: Q04DX004 (ip), vehicle: Klucel + Tween-80): 104 % of control
- T/C (dose: 7.5 mg/kg/injection, schedule: Q04DX004 (ip), vehicle: Klucel + Tween-80): 106 % of control
- T/C (dose: 15.0 mg/kg/injection, schedule: Q04DX004 (ip), vehicle: Klucel + Tween-80): 103 % of control
- T/C (dose: 30.0 mg/kg/injection, schedule: Q04DX004 (ip), vehicle: Klucel + Tween-80): 113 % of control
- T/C (dose: 60.0 mg/kg/injection, schedule: Q04DX004 (ip), vehicle: Klucel + Tween-80): 121 % of control

SMILES: NCCCN=c1ccc2c3c1c(O)c1c(O)ccc(=O)c1c3[nH]n2CCNCCO
- T/C (dose: 8.0 mg/kg/injection, schedule: Q04DX004 (ip), vehicle: water): 171 % of control
- T/C (dose: 16.0 mg/kg/injection, schedule: Q04DX004 (ip), vehicle: water): 186 % of control

SMILES: Cc1nn(-c2ccccn2)c2ncnc(N)c12
- T/C (dose: 37.5 mg/kg/injection, schedule: Q04DX004 (ip), vehicle: saline with Tween-80): 106 % of control
- T/C (dose: 75.0 mg/kg/injection, schedule: Q04DX004 (ip), vehicle: saline with Tween-80): 102 % of control
- T/C (dose: 150.0 mg/kg/injection, schedule: Q04DX004 (ip), vehicle: saline with Tween-80): 86 % of control

SMILES: O=c1cc(CCl)[nH]nc1CCl
- T/C (dose: 3.0 mg/kg/injection, schedule: Q04DX004 (ip), vehicle: saline with Tween-80): 111 % of control
- T/C (dose: 6.0 mg/kg/injection, schedule: Q04DX004 (ip), vehicle: saline with Tween-80): 110 % of control
- T/C (dose: 12.0 mg/kg/injection, schedule: Q04DX004 (ip), vehicle: saline with Tween-80): 112 % of control
- T/C (dose: 24.0 mg/kg/injection, schedule: Q04DX004 (ip), vehicle: saline with Tween-80): 120 % of control
- T/C (dose: 48.0 mg/kg/injection, schedule: Q04DX004 (ip), vehicle: saline with Tween-80): 114 % of control

SMILES: O=C/C(Cl)=C(/Cl)C(=O)O
- T/C (dose: 6.25 mg/kg/injection, schedule: Q04DX004 (ip), vehicle: saline with Tween-80): 92 % of control
- T/C (dose: 12.5 mg/kg/injection, schedule: Q04DX004 (ip), vehicle: saline with Tween-80): 104 % of control and 110 % of control
- T/C (dose: 25.0 mg/kg/injection, schedule: Q04DX004 (ip), vehicle: saline with Tween-80): 109 % of control and 119 % of control

SMILES: COC1C(O)CC(OC2CC(Oc3cc4cc5c(c(O)c4c(O)c3C)C(=O)[C@@H](OC3CC(OC4CC(OC6CC(C)(O)C(OC(C)=O)C(C)O6)C(O)C(C)O4)C(O)C(C)O3)[C@H]([C@H](OC)C(=O)[C@@H](O)[C@@H](C)O)C5)OC(C)C2OC(C)=O)OC1C (stereo partly specified)
- T/C (dose: 37.5 micrograms/kg/injection, schedule: Q04DX004 (ip), vehicle: water): 110 % of control
- T/C (dose: 75.0 micrograms/kg/injection, schedule: Q04DX004 (ip), vehicle: water): 111 % of control

SMILES: CN(C)CN1C(=O)S/C(=C2\C(=O)N(CN(C)C)c3ccccc32)C1=O
- T/C (dose: 50.0 mg/kg/injection, schedule: Q04DX004 (ip), vehicle: Klucel (hydroxypropylcellulose) (HPC)): 102 % of control
- T/C (dose: 100.0 mg/kg/injection, schedule: Q04DX004 (ip), vehicle: Klucel (hydroxypropylcellulose) (HPC)): 90 % of control
- T/C (dose: 200.0 mg/kg/injection, schedule: Q04DX004 (ip), vehicle: Klucel (hydroxypropylcellulose) (HPC)): 90 % of control
